Calls of active or inactive are those of the source.
Legend:
[1] = molecular target: Ephrin type-A receptor 4 (Mus musculus, UniProt Q03137); experiment: EphA4 ligand-binding antagonists – biochemical, colorimetric, mouse EphA4, primary screen (AID 689); assay type: functional
[2] = molecular target: Luciferin 4-monooxygenase (Photinus pyralis, UniProt P08659); experiment: inhibition of purified Photinus pyralis luciferase – biochemical, luminescence, dose response (AID 1891)
[3] = Luminescence Cell-Based Dose Confirmation HTS to Identify Inhibitors of Platelet Dense Granule Release. [Related pubchem assays: 1663 (Primary HTS), 1678 (Summary of Project)]; assay type: functional
[4] = Fluorescence Cell-Based Dose Response to Identify Inhibitors of Thrombin Receptor-Activating Peptide SFLLRN-Mediated P-Selectin Induction on Platelets. [Related pubchem assays: 1663 (Primary HTS), 1889 (retest at dose ), 1891 (counterscreen), 1678 (Project Summary)]; assay type: functional
[5] = Trypanosoma cruzi growth suppression in host cells – NIH3T3 host cells, beta-gal luminescence, confirmation (AID 2044); assay type: functional, cell-based;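 also: intracellular parasites grown in NIH/3T3 mouse fibroblasts as host cells; luminescent beta-galactosidase reporter signal from transgenic T. cruzi replicating inside host cells; inhibitors lower the luminescence signal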
[6] = NIH3T3 cell viability loss – ATP luminescence, mouse fibroblasts, counter-screen, dose response (AID 2010); assay type: functional, cell-based;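 also: cells exposed to compound for about 90 hours before reading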
[7] = molecular target: T1, Disintegrin and metalloproteinase domain-containing protein 17 (Homo sapiens, UniProt P78536); experiment: exosite inhibitors of ADAM17, dose response, biochemical (AID 743260)
[8] = inhibition of ADAM10 peptide cleavage – biochemical, FRET peptide substrate, recombinant human ADAM10, selectivity assay for ADAM17 exosite inhibitor project, dose response (AID 743259);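 also: ADAM10 enzyme cleaving a FRET peptide substrate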
[9] = molecular target: Prothrombin (Homo sapiens, UniProt P00734); experiment: Thrombin 1536 HTS Dose Response Confirmation. [Related pubchem assays: 1046 (Thrombin 1536 HTS; hits were confirmed in this assay)]; assay type: functional
[10] = viability loss in A549 lung cancer cells – cell-based, cherry-picks, […], cytotoxicity control, dose response (AID 1053119); assay type: functional
[11] = Luminescence Cell-Based Dose Confirmation HTS to Identify Inhibitors of Polyadenylation.; assay type: functional
[12] = molecular target: Protein-tyrosine kinase 2-beta (Homo sapiens, UniProt Q14289);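 also: potency of inhibitors of PYK2 kinase phosphorylation of poly-GT substrate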
[13] = molecular target: T2, Protein skinhead-1 (Caenorhabditis elegans, UniProt P34707); assay type: functional
T2 sequence (P34707 whole entry): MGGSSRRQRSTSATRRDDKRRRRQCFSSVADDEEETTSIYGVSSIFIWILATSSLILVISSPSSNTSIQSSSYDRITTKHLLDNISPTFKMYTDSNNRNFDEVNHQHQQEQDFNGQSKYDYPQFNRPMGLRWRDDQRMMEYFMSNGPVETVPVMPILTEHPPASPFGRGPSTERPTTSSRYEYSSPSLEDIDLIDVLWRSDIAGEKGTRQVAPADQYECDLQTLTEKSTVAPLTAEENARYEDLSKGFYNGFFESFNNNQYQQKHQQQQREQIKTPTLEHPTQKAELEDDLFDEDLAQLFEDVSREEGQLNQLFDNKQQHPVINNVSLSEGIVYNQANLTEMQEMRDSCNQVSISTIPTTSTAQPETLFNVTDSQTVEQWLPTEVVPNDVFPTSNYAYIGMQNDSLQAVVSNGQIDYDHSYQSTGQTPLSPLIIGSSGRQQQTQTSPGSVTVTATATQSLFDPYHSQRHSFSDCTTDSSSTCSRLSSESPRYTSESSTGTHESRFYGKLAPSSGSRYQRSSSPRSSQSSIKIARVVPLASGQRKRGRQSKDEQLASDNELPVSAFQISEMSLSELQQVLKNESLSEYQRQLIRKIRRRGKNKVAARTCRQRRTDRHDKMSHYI

[14] = Luminescence-based cell-based high throughput dose response assay to identify activators of the DAF-12 from the parasite S. stercoralis (ssDAF-12).; assay type: functional
[15] = molecular target: T3, Oxysterols receptor LXR-beta (Homo sapiens, UniProt P55055); experiment: LXR agonists, Gal4 luciferase reporter, dose response, counter-screen for ssDAF-12 agonist project, cell-based, luminescence, HEK293, S. stercoralis campaign (AID 720737); assay type: functional; conditions: read-out: IC50 (the source's name)
T3 sequence (P55055 whole entry): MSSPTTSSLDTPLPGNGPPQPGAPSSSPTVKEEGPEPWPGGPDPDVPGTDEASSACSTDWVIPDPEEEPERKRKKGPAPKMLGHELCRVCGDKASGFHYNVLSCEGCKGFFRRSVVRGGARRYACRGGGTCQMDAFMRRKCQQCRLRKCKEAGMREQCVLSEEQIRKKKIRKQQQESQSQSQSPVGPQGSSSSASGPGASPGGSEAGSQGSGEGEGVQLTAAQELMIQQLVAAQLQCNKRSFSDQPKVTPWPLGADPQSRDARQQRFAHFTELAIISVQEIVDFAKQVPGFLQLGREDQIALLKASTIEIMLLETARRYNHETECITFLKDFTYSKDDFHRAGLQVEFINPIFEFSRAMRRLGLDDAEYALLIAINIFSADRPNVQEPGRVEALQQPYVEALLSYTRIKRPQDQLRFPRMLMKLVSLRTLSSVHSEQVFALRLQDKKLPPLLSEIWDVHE

[16] = molecular target: T3, Oxysterols receptor LXR-beta; assay type: functional, cell-based
[17] = cells
[18] = reduced cellular PGC1a acetyl-lysine signal – cell-based, cherry-picked samples, dose response (AID 720514); assay type: functional;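 also: potency may reflect raised or lowered acetylation signal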
[19] = molecular target: E3 ubiquitin-protein ligase Mdm2 (Homo sapiens, UniProt Q00987); experiment: MDM2-luc reporter signal enhancers, multi-concentration potency testing, MDM2 ubiquitin-protein ligase inhibitor program, whole-cell format, luminescence detection, 384-well microplate (AID 1394); assay type: functional;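 also: MDM2 E3 inhibitors raise luminescence so EC50 is for signal enhancement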
[20] = system: BJ; experiment: growth inhibition of engineered Ras-driven BJ cells – cell-based, alamar blue fluorescence, cherrypicked samples, dose response (AID 2631); assay type: functional; conditions: Homo sapiens;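 also: confirmatory dose-response assay in RAS-dependent BJ fibroblasts engineered with TERT, LT and ST, with cytotoxicity read by fluorescence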
[21] = reduction of Shn3 3'UTR-driven luciferase in osteoblasts – cell-based, Clone20 osteoblasts, firefly luciferase, cherry-picked, dose response (AID 624132); assay type: functional;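 also: firefly luciferase luminescence from reporter carrying the Shn3 3'UTR in osteoblasts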
[22] = loss of viability in HepG2 cells – cell-based, CellTiter-Glo, cherry-picked, cytotoxicity control for Shn3 inhibitor project, dose response (AID 624134); assay type: functional
[23] = non-specific 3'UTR reporter inhibition in Clone20-Shn3RL – cell-based, Renilla luciferase, cherry-picked, counter-screen for Shn3 inhibitor project, dose response (AID 624133); assay type: functional
[24] = potency of ADAM10 substrate cleavage blockers – biochemical, QFRET, dose response (AID 743254);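 also: ADAM10 enzyme with the DM2 quenched FRET peptide as substrate; EDANS fluorescence gain as the protease cuts the substrate; inhibitor potency against ADAM10 proteolytic activity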
[25] = molecular target: T1, Disintegrin and metalloproteinase domain-containing protein 17; experiment: inhibition of ADAM17 substrate cleavage – biochemical, quenched FRET substrate, counter-screen for ADAM10 exosite inhibitor project, dose response (AID 743253)
[26] = system: Vero; experiment: mammalian cell viability reduction – secondary assay, cytotoxicity control for West Nile virus antiviral project, dose response (AID 1650); assay type: functional; conditions: Chlorocebus sabaeus
[27] = system: INS1; experiment: INS-1E survival protection against cytokine death – cell-based, luminescence, retest, dose response (AID 449756); assay type: functional; conditions: Rattus norvegicus;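 also: cell death triggered by IL-1 beta plus TNF-alpha plus IFN-gamma mixture; protective hits raise ATP signal compared with cytokine alone wells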

T1 sequence (P78536 whole entry, the tested form may be a part): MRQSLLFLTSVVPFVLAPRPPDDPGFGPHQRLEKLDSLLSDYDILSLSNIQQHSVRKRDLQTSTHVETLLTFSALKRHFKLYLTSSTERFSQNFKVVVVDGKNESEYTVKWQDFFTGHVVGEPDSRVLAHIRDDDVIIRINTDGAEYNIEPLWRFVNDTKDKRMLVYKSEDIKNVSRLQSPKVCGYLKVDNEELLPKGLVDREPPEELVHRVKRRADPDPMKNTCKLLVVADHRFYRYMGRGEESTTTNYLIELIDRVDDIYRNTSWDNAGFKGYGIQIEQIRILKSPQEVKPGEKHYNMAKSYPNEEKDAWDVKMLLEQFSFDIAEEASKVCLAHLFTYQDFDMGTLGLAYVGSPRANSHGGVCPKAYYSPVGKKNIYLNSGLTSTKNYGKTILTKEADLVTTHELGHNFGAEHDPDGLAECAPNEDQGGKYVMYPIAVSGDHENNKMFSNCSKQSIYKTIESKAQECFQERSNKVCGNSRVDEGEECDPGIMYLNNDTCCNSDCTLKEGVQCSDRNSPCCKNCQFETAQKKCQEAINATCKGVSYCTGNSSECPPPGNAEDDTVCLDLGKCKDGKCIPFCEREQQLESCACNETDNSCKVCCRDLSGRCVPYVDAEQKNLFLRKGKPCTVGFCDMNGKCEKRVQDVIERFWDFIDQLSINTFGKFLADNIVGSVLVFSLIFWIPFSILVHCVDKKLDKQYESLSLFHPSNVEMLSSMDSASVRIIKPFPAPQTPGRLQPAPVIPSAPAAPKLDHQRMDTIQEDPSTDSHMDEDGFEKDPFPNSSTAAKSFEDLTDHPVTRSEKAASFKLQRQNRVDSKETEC
Sequence of Luciferin 4-monooxygenase (P08659 whole entry): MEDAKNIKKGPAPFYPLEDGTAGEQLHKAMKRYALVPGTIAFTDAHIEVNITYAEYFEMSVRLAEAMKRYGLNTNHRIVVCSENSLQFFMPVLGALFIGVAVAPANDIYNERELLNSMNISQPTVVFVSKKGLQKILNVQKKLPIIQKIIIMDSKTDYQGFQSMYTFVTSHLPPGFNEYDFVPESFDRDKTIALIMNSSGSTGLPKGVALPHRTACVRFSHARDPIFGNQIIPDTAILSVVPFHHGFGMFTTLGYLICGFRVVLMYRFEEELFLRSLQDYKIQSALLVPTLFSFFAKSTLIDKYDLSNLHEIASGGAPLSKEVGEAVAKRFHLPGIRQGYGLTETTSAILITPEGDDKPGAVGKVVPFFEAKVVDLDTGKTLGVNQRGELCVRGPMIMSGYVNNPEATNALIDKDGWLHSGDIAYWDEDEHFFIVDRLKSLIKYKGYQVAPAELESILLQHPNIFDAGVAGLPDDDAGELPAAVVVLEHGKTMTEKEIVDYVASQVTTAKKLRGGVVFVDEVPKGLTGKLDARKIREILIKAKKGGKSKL
Sequence of Ephrin type-A receptor 4 (Q03137 whole entry): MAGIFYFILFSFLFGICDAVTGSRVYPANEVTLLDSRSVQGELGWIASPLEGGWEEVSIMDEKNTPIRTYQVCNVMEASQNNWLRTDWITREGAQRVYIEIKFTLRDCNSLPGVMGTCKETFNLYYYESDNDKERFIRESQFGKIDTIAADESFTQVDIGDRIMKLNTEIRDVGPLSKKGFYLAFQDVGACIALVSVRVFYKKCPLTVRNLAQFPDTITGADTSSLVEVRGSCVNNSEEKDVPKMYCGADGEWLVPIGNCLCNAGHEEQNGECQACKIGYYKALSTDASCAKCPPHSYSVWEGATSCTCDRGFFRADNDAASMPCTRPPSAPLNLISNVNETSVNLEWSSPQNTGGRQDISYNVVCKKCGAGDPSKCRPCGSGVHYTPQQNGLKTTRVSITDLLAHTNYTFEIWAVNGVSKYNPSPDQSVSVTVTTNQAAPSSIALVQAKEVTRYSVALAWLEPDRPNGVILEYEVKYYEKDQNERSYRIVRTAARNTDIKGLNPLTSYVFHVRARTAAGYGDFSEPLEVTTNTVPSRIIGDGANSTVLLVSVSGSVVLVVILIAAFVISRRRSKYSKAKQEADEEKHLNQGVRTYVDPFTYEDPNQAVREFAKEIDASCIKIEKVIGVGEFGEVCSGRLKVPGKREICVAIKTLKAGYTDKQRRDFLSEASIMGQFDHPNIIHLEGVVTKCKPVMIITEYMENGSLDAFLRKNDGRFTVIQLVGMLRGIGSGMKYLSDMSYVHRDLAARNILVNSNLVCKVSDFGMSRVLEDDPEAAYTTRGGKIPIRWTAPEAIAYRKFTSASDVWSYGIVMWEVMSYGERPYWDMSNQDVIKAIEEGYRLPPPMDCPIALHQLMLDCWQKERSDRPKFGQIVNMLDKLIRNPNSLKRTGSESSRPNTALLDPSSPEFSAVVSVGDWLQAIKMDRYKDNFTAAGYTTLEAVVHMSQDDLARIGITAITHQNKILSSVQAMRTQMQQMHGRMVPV
Sequence of E3 ubiquitin-protein ligase Mdm2 (Q00987 whole entry): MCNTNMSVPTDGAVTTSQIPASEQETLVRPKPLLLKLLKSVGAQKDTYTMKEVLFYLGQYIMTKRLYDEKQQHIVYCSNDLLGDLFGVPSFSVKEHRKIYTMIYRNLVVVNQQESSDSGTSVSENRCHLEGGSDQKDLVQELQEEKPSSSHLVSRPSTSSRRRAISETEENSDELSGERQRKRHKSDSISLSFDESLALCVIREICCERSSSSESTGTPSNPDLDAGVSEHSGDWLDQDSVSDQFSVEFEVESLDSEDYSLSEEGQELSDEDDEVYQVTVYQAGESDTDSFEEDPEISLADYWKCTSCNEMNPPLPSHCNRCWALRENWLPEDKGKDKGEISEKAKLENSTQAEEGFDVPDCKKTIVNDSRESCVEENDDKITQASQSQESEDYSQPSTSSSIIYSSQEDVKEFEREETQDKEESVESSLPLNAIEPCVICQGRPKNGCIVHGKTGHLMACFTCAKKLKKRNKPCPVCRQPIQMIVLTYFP
Sequence of Protein-tyrosine kinase 2-beta (Q14289 whole entry): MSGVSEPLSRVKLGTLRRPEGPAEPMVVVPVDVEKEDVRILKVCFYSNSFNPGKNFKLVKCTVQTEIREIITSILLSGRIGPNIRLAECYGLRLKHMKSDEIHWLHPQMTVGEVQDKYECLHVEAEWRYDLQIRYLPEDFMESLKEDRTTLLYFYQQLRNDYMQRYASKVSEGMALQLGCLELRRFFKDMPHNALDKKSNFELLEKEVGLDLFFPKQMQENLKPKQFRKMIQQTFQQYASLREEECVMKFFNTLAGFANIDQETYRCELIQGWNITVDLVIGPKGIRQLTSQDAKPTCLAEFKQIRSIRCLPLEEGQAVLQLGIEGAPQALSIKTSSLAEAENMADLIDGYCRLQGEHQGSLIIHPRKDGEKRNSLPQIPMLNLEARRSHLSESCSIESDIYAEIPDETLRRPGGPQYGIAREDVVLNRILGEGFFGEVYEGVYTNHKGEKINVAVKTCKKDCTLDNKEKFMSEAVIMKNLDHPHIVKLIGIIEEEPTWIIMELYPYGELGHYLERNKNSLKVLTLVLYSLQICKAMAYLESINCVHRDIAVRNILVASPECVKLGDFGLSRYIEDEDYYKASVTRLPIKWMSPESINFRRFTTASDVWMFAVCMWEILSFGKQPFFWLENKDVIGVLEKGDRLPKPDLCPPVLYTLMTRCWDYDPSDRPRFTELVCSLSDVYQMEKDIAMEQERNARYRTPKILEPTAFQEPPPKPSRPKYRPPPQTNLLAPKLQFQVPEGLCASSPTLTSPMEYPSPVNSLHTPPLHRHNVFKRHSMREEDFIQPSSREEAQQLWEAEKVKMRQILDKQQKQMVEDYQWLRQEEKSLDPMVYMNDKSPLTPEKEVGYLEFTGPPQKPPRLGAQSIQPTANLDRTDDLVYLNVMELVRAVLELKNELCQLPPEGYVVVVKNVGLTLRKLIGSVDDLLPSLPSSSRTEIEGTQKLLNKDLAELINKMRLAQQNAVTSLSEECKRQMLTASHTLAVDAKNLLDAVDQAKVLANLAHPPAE

COc1cccc(C2(CSc3nnc(-c4cc(OC)c(OC)c(OC)c4)o3)OCCO2)c1
IC50 [1]: > 100 µM (not active)

COc1ccccc1-n1cc(-c2ccc(Cl)cc2)nc1O
EC50 [2]: > 112 µM (not active) | EC50 [3]: 1.89 µM (active) | EC50 [4]: < 0.3 µM (active)

CCCn1c(SCC(=O)N2c3ccccc3Sc3ccccc32)nc2ccccc21
EC50 [5]: 2.9 µM (active) | EC50 [6]: > 60 µM (not active) | IC50 [7]: > 69.5 µM (inactive) | IC50 [8]: 19.7 µM (inactive)

CSc1nc(-c2ccccc2)nn1C(=O)c1ccco1
IC50 [9]: 0.3 µM (active)

Cc1ccn2cc(-c3ccc(NC(=O)c4ccco4)cc3)nc2c1
AC50 [10]: > 52 µM (inactive)

Cn1c(=O)c(C(=O)NNC(=O)c2ccccc2Cl)c(O)c2ccccc21
EC50 [11]: > 120 µM (not active)

COCCN(Cc1ccccc1)P(=O)(O)c1ccccc1OCC(=O)O
IC50 [12]: 7.64 µM (active)

COc1cccc(-c2nc(-c3cccs3)no2)c1
EC50 [2]: > 112 µM (not active) | EC50 [3]: > 112 µM (not active) | IC50 [13]: > 100 µM (inactive) | IC50 [14]: > 67.6 µM (inactive) | EC50 [15]: > 67.6 µM (inactive) | EC50 [16]: > 67.6 µM (inactive) | EC50 [17]: > 67.6 µM (inactive)

O=C(/C=C/c1ccc(N2CCCCC2)c([N+](=O)[O-])c1)c1ccc(O)cc1
AC50 [18]: 28.1 µM (active)

CCc1c(C)c(C#N)c2nc3ccccc3n2c1Cl
EC50 [19]: 9.98 µM (not active) | EC50 [20]: 0.443 µM (inconclusive)

C=CCC[C@H](Cc1ccc(F)cc1)C(=O)OC[C@H](Cc1c[nH]c2ccccc12)NC(=O)[C@@H](CC=C)CC(=O)N[C@H](CO)Cc1ccccc1
AC50 [21]: 4.44 µM (active) | AC50 [22]: 17 µM (active) | AC50 [23]: 15.8 µM (active) | IC50 [24]: > 69.5 µM (inactive) | IC50 [7]: > 69.5 µM (inactive) | IC50 [8]: 58.9 µM (inactive) | IC50 [25]: > 69.5 µM (inactive)

Cn1c(=O)[nH]c(=O)c2c1nc(N1CCN(C(c3ccccc3)c3ccccc3)CC1)n2CCO
CC50 [26]: 14.5 µM (active) | AC50 [27]: 6.24 µM (active)
